Reference: PubChem BioAssay AID292 (DTP/NCI, 2004)
Several values for one entry are separate records, joined by “and”; a condition that tells them apart may be missing. Identical values can stand only once. Toxic doses and inconclusive results are not listed.

Test system: B6C3F1 mice, ip Sarcoma M5076, median survival T/C
Experiment: NCI In Vivo Anticancer Drug Screen. Data for tumor model Sarcoma M5076 (intraperitoneal) in B6C3F1 mice
Details: endpoint: median survival time, higher = longer survival
Procedure, shortened: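 Mice carrying the transplanted tumour received compound treatment. Survival was recorded, and each value is the treated-group measurement divided by that of the vehicle-dosed control group.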

[1] = dose: 50.0 mg/kg/injection, schedule: Q04DX004 (ip), vehicle: suspension in saline
[2] = dose: 100.0 mg/kg/injection, schedule: Q04DX004 (ip), vehicle: suspension in saline
[3] = dose: 200.0 mg/kg/injection, schedule: Q04DX004 (ip), vehicle: suspension in saline
[4] = dose: 200.0 mg/kg/injection, schedule: Q04DX004 (ip), vehicle: saline with Tween-80
[5] = dose: 12.5 mg/kg/injection, schedule: Q04DX004 (ip), vehicle: suspension in saline
[6] = dose: 25.0 mg/kg/injection, schedule: Q04DX004 (ip), vehicle: suspension in saline
[7] = dose: 50.0 mg/kg/injection, schedule: Q04DX004 (ip), vehicle: saline
[8] = dose: 100.0 mg/kg/injection, schedule: Q04DX004 (ip), vehicle: saline
[9] = dose: 25.0 mg/kg/injection, schedule: Q04DX004 (ip), vehicle: Klucel (hydroxypropylcellulose) (HPC)
[10] = dose: 50.0 mg/kg/injection, schedule: Q04DX004 (ip), vehicle: Klucel (hydroxypropylcellulose) (HPC)
[11] = dose: 100.0 mg/kg/injection, schedule: Q04DX004 (ip), vehicle: Klucel (hydroxypropylcellulose) (HPC)
[12] = dose: 200.0 mg/kg/injection, schedule: Q04DX004 (ip), vehicle: Klucel (hydroxypropylcellulose) (HPC)

CN1COc2c(n(C)c(=O)[nH]c2=O)C1 was tested, and the T/C [1] was 106 % of control, the T/C [2] was 106 % of control and the T/C [3] was 105 % of control. The T/C (dose: 400.0 mg/kg/injection, schedule: Q04DX004 (ip), vehicle: suspension in saline) was 106 % of control and the T/C (dose: 800.0 mg/kg/injection, schedule: Q04DX004 (ip), vehicle: suspension in saline) was 114 % of control.

O=C(Nc1ccccc1CCl)Nc1ccccc1CCl was tested, and the T/C (dose: 50.0 mg/kg/injection, schedule: Q04DX004 (ip), vehicle: saline with Tween-80) was 107 % of control, the T/C (dose: 100.0 mg/kg/injection, schedule: Q04DX004 (ip), vehicle: saline with Tween-80) was 102 % of control and 110 % of control and the T/C [4] was 109 % of control and 114 % of control. The T/C (dose: 800.0 mg/kg/injection, schedule: Q04DX004 (ip), vehicle: saline with Tween-80) was 123 % of control.

In the case of COc1ccc(-c2nnc3cc(C)n4nnnc4n23)cc1OC, the T/C (dose: 18.75 mg/kg/injection, schedule: Q04DX004 (ip), vehicle: Klucel (hydroxypropylcellulose) (HPC)) is reported as 99 % of control, the T/C (dose: 37.5 mg/kg/injection, schedule: Q04DX004 (ip), vehicle: Klucel (hydroxypropylcellulose) (HPC)) is reported as 94 % of control and the T/C (dose: 75.0 mg/kg/injection, schedule: Q04DX004 (ip), vehicle: Klucel (hydroxypropylcellulose) (HPC)) is reported as 98 % of control. The T/C (dose: 150.0 mg/kg/injection, schedule: Q04DX004 (ip), vehicle: Klucel (hydroxypropylcellulose) (HPC)) was 99 % of control and the T/C (dose: 300.0 mg/kg/injection, schedule: Q04DX004 (ip), vehicle: Klucel (hydroxypropylcellulose) (HPC)) was 91 % of control.

c1ccc2c(c1)oc1cc3c(cc12)nnc1cccn13 was tested, and the T/C (dose: 22.5 mg/kg/injection, schedule: Q04DX004 (ip), vehicle: Klucel (hydroxypropylcellulose) (HPC)) was 92 % of control, the T/C (dose: 45.0 mg/kg/injection, schedule: Q04DX004 (ip), vehicle: Klucel (hydroxypropylcellulose) (HPC)) was 96 % of control and the T/C (dose: 90.0 mg/kg/injection, schedule: Q04DX004 (ip), vehicle: Klucel (hydroxypropylcellulose) (HPC)) was 94 % of control. The T/C (dose: 180.0 mg/kg/injection, schedule: Q04DX004 (ip), vehicle: Klucel (hydroxypropylcellulose) (HPC)) was 88 % of control and the T/C (dose: 360.0 mg/kg/injection, schedule: Q04DX004 (ip), vehicle: Klucel (hydroxypropylcellulose) (HPC)) was 92 % of control.

In the case of Cc1c(O)/c(=C\O)c2nc3c(=O)ccc(C(=O)NCCN(C)C)c3[nH]c2c1=O, the T/C (dose: 25.0 mg/kg/injection, schedule: Q04DX004 (ip), vehicle: water) is reported as 100 % of control, the T/C (dose: 50.0 mg/kg/injection, schedule: Q04DX004 (ip), vehicle: water) is reported as 107 % of control and the T/C (dose: 100.0 mg/kg/injection, schedule: Q04DX004 (ip), vehicle: water) is reported as 107 % of control. For the same compound, the T/C (dose: 200.0 mg/kg/injection, schedule: Q04DX004 (ip), vehicle: water) was 112 % of control.

CCOC(=O)C(N)CSC(=O)NC (stereo not given) was tested, and the T/C (dose: 130.0 mg/kg/injection, schedule: Q04DX004 (ip), vehicle: saline) was 105 % of control, the T/C (dose: 216.0 mg/kg/injection, schedule: Q04DX004 (ip), vehicle: saline) was 111 % of control and 119 % of control and the T/C (dose: 360.0 mg/kg/injection, schedule: Q04DX004 (ip), vehicle: saline) was 115 % of control and 122 % of control.

For CN(C)C(=O)c1cccc(COc2ccc(N3C(N)=NC(N)=NC3(C)C)cc2Cl)c1, the T/C (dose: 6.25 mg/kg/injection, schedule: Q04DX004 (ip), vehicle: suspension in saline) was 90 % of control, the T/C [5] was 102 % of control and the T/C [6] was 93 % of control. The T/C [1] was 97 % of control and the T/C [2] was 113 % of control.

With N=C(N)SCc1cccc2c(=O)cc(-c3ccccc3)oc12 the T/C [7] was 98 % of control, the T/C [1] was 114 % of control and the T/C [8] was 102 % of control. For the same compound, the T/C [2] was 104 % of control, the T/C (dose: 144.0 mg/kg/injection, schedule: Q04DX004 (ip), vehicle: suspension in saline) was 105 % of control and 112 % of control and the T/C (dose: 200.0 mg/kg/injection, schedule: Q04DX004 (ip), vehicle: saline) was 106 % of control. For the same compound, the T/C [3] was 104 % of control, the T/C (dose: 240.0 mg/kg/injection, schedule: Q04DX004 (ip), vehicle: suspension in saline) was 101 % of control and 109 % of control and the T/C (dose: 400.0 mg/kg/injection, schedule: Q04DX004 (ip), vehicle: saline) was 102 % of control. The T/C (dose: 666.67 mg/kg/injection, schedule: Q04DX004 (ip), vehicle: suspension in saline) was 101 % of control and the T/C (dose: 1111.11 mg/kg/injection, schedule: Q04DX004 (ip), vehicle: suspension in saline) was 100 % of control.

With CCCCCNc1ncnc2c(C)[nH]nc12 the T/C [9] was 105 % of control, the T/C [10] was 97 % of control and the T/C [11] was 103 % of control. The T/C [12] was 88 % of control.

In the case of Cn1c2ccccc2c2ccc3c(c21)C(=O)C=CC3=O, the T/C [9] is reported as 93 % of control and the T/C [10] is reported as 98 % of control.

O=c1c2ccccc2nc(-c2ccccc2)n1-c1nccs1 was tested, and the T/C (dose: 25.0 mg/kg/injection, schedule: Q04DX004 (ip), vehicle: saline with Tween-80) was 94 % of control, the T/C [4] was 89 % of control and the T/C (dose: 400.0 mg/kg/injection, schedule: Q04DX004 (ip), vehicle: saline with Tween-80) was 90 % of control.

For CC(=O)NC(CSC1=C2NC(=O)\C=C/C=C/C=C\C(C)C(O)CC(=O)/C(C)=C\CC(O)/C=C/C(C)C(O)C(C)C=C(C)C(=O)c3c(O)c(C)cc(c3C1=O)C2=O)C(=O)O (stereo not given), the T/C (dose: 1.25 mg/kg/injection, schedule: Q04DX004 (ip), vehicle: Klucel (hydroxypropylcellulose) (HPC)) was 100 % of control, the T/C (dose: 2.5 mg/kg/injection, schedule: Q04DX004 (ip), vehicle: Klucel (hydroxypropylcellulose) (HPC)) was 100 % of control and the T/C (dose: 5.0 mg/kg/injection, schedule: Q04DX004 (ip), vehicle: Klucel (hydroxypropylcellulose) (HPC)) was 101 % of control. For the same compound, the T/C (dose: 10.0 mg/kg/injection, schedule: Q04DX004 (ip), vehicle: Klucel (hydroxypropylcellulose) (HPC)) was 93 % of control and the T/C (dose: 20.0 mg/kg/injection, schedule: Q04DX004 (ip), vehicle: Klucel (hydroxypropylcellulose) (HPC)) was 100 % of control.

Nc1ncn(C2OC(CO)C(O)C2O)c(=O)n1 (stereo not given) was tested, and the T/C (dose: 0.38 mg/kg/injection, schedule: Q01DX009 (ip), vehicle: saline) was 100 % of control and 101 % of control, the T/C (dose: 0.75 mg/kg/injection, schedule: Q01DX009 (ip), vehicle: saline) was 109 % of control and 114 % of control and the T/C (dose: 1.5 mg/kg/injection, schedule: Q01DX009 (ip), vehicle: saline) was 112 % of control and 115 % of control. For the same compound, the T/C (dose: 25.0 mg/kg/injection, schedule: Q01DX009 (ip), vehicle: saline) was 150 % of control, the T/C (dose: 50.0 mg/kg/injection, schedule: Q01DX009 (ip), vehicle: saline) was 155 % of control and 159 % of control and the T/C (dose: 100.0 mg/kg/injection, schedule: Q01DX009 (ip), vehicle: saline) was 172 % of control.

In the case of O=C(Nc1ccccc1[N+](=O)[O-])C1C(=O)C(=O)N(c2ccccc2[N+](=O)[O-])C1=O (stereo not given), the T/C [10] is reported as 101 % of control, the T/C [11] is reported as 89 % of control and the T/C [12] is reported as 92 % of control.

With Cc1ccc(C(=O)Nc2ccc(S(=O)(=O)O)c3cc(S(=O)(=O)O)cc(S(=O)(=O)O)c23)cc1NC(=O)c1cccc(NC(=O)Nc2cccc(C(=O)Nc3cc(C(=O)Nc4ccc(S(=O)(=O)O)c5cc(S(=O)(=O)O)cc(S(=O)(=O)O)c45)ccc3C)c2)c1 the T/C (dose: 25.0 mg/kg/injection, schedule: Q04DX004 (ip), vehicle: saline) was 105 % of control, the T/C [7] was 108 % of control and 109 % of control and the T/C [8] was 112 % of control.

For C=C(C)/C([O-])=N/[N+](C)(C)CC(O)CCCCCCCCCCCC (stereo not given), the T/C [5] was 97 % of control, the T/C [6] was 95 % of control and the T/C [1] was 100 % of control. For the same compound, the T/C [2] was 92 % of control.

For Cn1c(-c2ccc(/C=N\N3CCN(/N=C/c4ccc(-c5c[n+]6ccsc6n5C)cc4)CC3)cc2)c[n+]2ccsc12, the T/C (dose: 1.5 mg/kg/injection, schedule: Q04DX004 (ip), vehicle: saline with Tween-80) was 109 % of control, the T/C (dose: 3.0 mg/kg/injection, schedule: Q04DX004 (ip), vehicle: saline with Tween-80) was 104 % of control and the T/C (dose: 6.0 mg/kg/injection, schedule: Q04DX004 (ip), vehicle: saline with Tween-80) was 101 % of control.
